Source: US4425356A, “Lankacidin derivatives used in swine husbandry” (Takeda Chemical Industries, Ltd., priority 1980, dated 1984)
Converted amounts (≈) assume the structure as drawn. Like-named read-outs stand apart in the source and are kept apart here.

Tested on: Treponema hyodysenteriae
Test: in vitro antibacterial activity (MIC, agar dilution method), Test Examples 1-3
Format: cell-based
Details: Brachyspira hyodysenteriae, 48 h, 37° C., 2 days, anaerobic, read-out: Minimum Inhibitory Concentration
Method: Several agents were tested for in vitro antibacterial activity against Treponema hyodysenteriae, the pathogenic bacteria causing swine dysentery, by the method of testing drug sensitivity of Treponema hyodysenteriae (Kashiwazaki et al. Abstracts of Papers presented at the 82nd Meeting of the Japanese Society of Veterinary Science, page 101, 1976).
(1) Strains: These strains belong to Treponema hyodysenteriae isolated
from the bloody mucous faeces of dysenteric pigs in Japan.
(2) Antimicrobial activity assay: Agar dilution method
(3) Inoculum size: A loopful of bacterial suspension (10^6 CFU/ml)
(4) Cultural conditions: GasPak anaerobic system (BBL), 37° C., 2
Typical agents among compound (I) were tested for in vitro antibacterial activity by the same method as in Test Example 1.
The experimental conditions are the same as in Test Example 1 (Table 1).
Agents of compound (I) were tested for in vitro antibacterial activity by the same method as in Test Example 1.

## CC(=O)C(=O)NC1C=C(C)C=CC(O)CC=C(C)C=CC(OC(=O)C(C)C)CC2OC(=O)C1(C)C(=O)C2C (stereo not shown) [Lankacidin C 14-isobutyrate]
Strain 78/A
  MIC: 12.5 µg/mL (≈ 23.6 µM)
Strain CD1 (CD-1)
  MIC: 25 µg/mL (≈ 47.2 µM)
Strain DJ70P1
  MIC: 12.5 µg/mL (≈ 23.6 µM)
Strain MK-2
  MIC: 25 µg/mL (≈ 47.2 µM)

## CCC(=O)OC1C=CC(C)=CC(NC(=O)C(C)=O)C2(C)C(=O)OC(CC(OC(=O)CC)C=CC(C)=CC1)C(C)C2=O (stereo not shown) [Lankacidin C 8,14-dipropionate, lankacidin C 8,14-dipropionate]
Strain 78/A
  MIC: 0.78 µg/mL (≈ 1.36 µM)
Strain CD1 (CD-1)
  MIC: 1.56 µg/mL (≈ 2.73 µM)
Strain DJ70P1
  MIC: 0.78 µg/mL (≈ 1.36 µM)
Strain MK-2
  MIC: 0.78 µg/mL (≈ 1.36 µM)

## CCCCC(=O)OC1C=CC(C)=CC(NC(=O)C(C)=O)C2(C)C(=O)OC(CC(O)C=CC(C)=CC1)C(C)C2=O (stereo not shown) [Lankacidin C 8-valerate]
Strain 78/A
  MIC: 1.56 µg/mL (≈ 2.87 µM)
Strain CD1 (CD-1)
  MIC: 3.13 µg/mL (≈ 5.76 µM)
Strain DJ70P1
  MIC: 1.56 µg/mL (≈ 2.87 µM)
Strain MK-2
  MIC: 3.13 µg/mL (≈ 5.76 µM)

## CO[C@H]1C[C@H](O[C@H]2[C@H](C)[C@@H](O[C@@H]3O[C@H](C)C[C@H](N(C)C)[C@H]3O)[C@@H](C)C[C@@]3(CO3)C(=O)[C@H](C)[C@@H](O)[C@@H](C)[C@@H](C)OC(=O)[C@@H]2C)O[C@@H](C)[C@@H]1O [Oleandomycin, reference compound]
Strain 78/A
  MIC: > 100 µg/mL
Strain CD1 (CD-1)
  MIC: > 100 µg/mL
Strain DJ70P1
  MIC: > 100 µg/mL
Strain MK-2
  MIC: > 100 µg/mL

## CC(=O)C(=O)NC1C=C(C)C=CC(O)CC=C(C)C=CC(OC=O)CC2OC(=O)C1(C)C(=O)C2C (stereo not shown) [Lankacidin C 14-formate, lankacidin C 14-formate]
Strain 78/A
  MIC: 6.25 µg/mL (≈ 12.8 µM)
Strain CD1 (CD-1)
  MIC: 12.5 µg/mL (≈ 25.6 µM)
Strain DJ70P1
  MIC: 6.25 µg/mL (≈ 12.8 µM)
Strain MK-2
  MIC: 6.25 µg/mL (≈ 12.8 µM)

## CC(=O)OC1C=CC(C)=CC(NC(=O)C(C)=O)C2(C)C(=O)OC(CC(OC(C)=O)C=CC(C)=CC1)C(C)C2=O (stereo not shown) [Lankacidin C 8,14-diacetate, lankacidin C 8,14-diacetate]
Strain 78/A
  MIC: 3.13 µg/mL (≈ 5.76 µM)
Strain CD1 (CD-1)
  MIC: 3.13 µg/mL (≈ 5.76 µM)
Strain DJ70P1
  MIC: 3.13 µg/mL (≈ 5.76 µM)
Strain MK-2
  MIC: 1.56 µg/mL (≈ 2.87 µM)

## CC(=O)C(=O)NC1C=C(C)C=CC(OC(=O)C(C)C)CC=C(C)C=CC(O)CC2OC(=O)C1(C)C(=O)C2C (stereo not shown) [Lankacidin C 8-isobutyrate]
Strain 78/A
  MIC: 6.25 µg/mL (≈ 11.8 µM)
Strain CD1 (CD-1)
  MIC: 6.25 µg/mL (≈ 11.8 µM)
Strain DJ70P1
  MIC: 3.13 µg/mL (≈ 5.91 µM)
Strain MK-2
  MIC: 6.25 µg/mL (≈ 11.8 µM)

## CO[C@@H]1[C@@H](O[C@@H]2O[C@H](C)[C@@H](O[C@H]3C[C@@](C)(O)[C@@H](OC(=O)CC(C)C)[C@H](C)O3)[C@H](N(C)C)[C@H]2O)[C@@H](CC=O)C[C@@H](C)[C@@H](O)/C=C/C=C/C[C@@H](C)OC(=O)C[C@H]1O [Leucomycin, reference compound]
Strain 78/A
  MIC: > 100 µg/mL
Strain CD1 (CD-1)
  MIC: > 100 µg/mL
Strain DJ70P1
  MIC: > 100 µg/mL
Strain MK-2
  MIC: > 100 µg/mL

## CC(=O)C(=O)NC1C=C(C)C=CC(O)CC=C(C)C=CC(OC(=O)c2ccccc2)CC2OC(=O)C1(C)C(=O)C2C (stereo not shown) [Lankacidin C 14-benzoate, lankacidin C 14-benzoate]
Strain 78/A
  MIC: 6.25 µg/mL (≈ 11.1 µM)
Strain CD1 (CD-1)
  MIC: 6.25 µg/mL (≈ 11.1 µM)
Strain DJ70P1
  MIC: 6.25 µg/mL (≈ 11.1 µM)
Strain MK-2
  MIC: 6.25 µg/mL (≈ 11.1 µM)

## CCCC(=O)OC1C=CC(C)=CC(NC(=O)C(C)=O)C2(C)C(=O)OC(CC(O)C=CC(C)=CC1)C(C)C2=O (stereo not shown) [Lankacidin C 8-butyrate]
Strain 78/A
  MIC: 0.78 µg/mL (≈ 1.47 µM)
Strain CD1 (CD-1)
  MIC: 0.78 µg/mL (≈ 1.47 µM)
Strain DJ70P1
  MIC: 0.78 µg/mL (≈ 1.47 µM)
Strain MK-2
  MIC: 0.78 µg/mL (≈ 1.47 µM)
